Measured values: US5753661A, “Fused benzo compounds containing a nitrogen heterocycle for the treatment of central nervous system disorders” (priority 1992, dated 1998)
Read-outs that look alike come from different tables or passages of the source.

Target: T1, 5-HT1A receptor (Rattus norvegicus, UniProt P19327)
T1 sequence (P19327 1-422): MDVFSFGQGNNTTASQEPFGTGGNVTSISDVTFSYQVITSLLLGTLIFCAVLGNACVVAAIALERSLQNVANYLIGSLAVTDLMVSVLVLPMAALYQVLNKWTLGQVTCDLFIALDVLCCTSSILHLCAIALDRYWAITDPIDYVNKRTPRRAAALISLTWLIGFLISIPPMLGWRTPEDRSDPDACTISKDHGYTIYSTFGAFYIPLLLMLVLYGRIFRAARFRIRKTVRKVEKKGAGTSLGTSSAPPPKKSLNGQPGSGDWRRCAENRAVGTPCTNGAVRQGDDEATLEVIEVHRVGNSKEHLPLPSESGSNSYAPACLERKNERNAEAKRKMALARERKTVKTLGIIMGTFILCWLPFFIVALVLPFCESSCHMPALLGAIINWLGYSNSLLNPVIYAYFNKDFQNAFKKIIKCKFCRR
Assay: Inhibition of 3H-8-OH-DPAT binding to serotonin 5-HT1A receptors in rat brain in vitro
Design: 5-HT1A receptors in membranes from rat brain minus cerebellum; from tissue; host or cells: rat brain minus cerebellum, membranes
Experimental: Inhibition of ^3 H-8-OH-DPAT Binding to Serotonin 5-HT1A Receptors in Rat Brain in vitro.
By this method the inhibition by drugs of the binding of the 5-HT1A agonist 3H-8-OH-DPAT (1 nM) to 5-HT1A receptors in membranes from rat brain minus cerebellum is determined in vitro . Accordingly, this is a test for affinity for the 5-HT1A receptor. The assay was performed as described by Hyttel et al., Drug Dev. Res. 1988, 15, 389-404.

[1] = 3H-8-OH-DPAT 1 nM, membranes from rat brain minus cerebellum, read-out: IC50, 3H 8-OH-DPAT binding

SMILES	IC50 [1]	IC50
O=C1N(CCN2CCN(c3cccc4cc[nH]c34)CC2)CCN1C1CCCC1 [Compound 2u, 1-Cyclopentyl-3-[2-[4-(7-indolyl)-1-piperazinyl]ethyl]-2-imidazolidinone]	0.11 µM	
O=C1N(CCN2CCN(c3cccc4c3OCCO4)CC2)CCN1C12CC3CC(CC(C3)C1)C2 [Compound 2q, 1-Adamantyl-3-[2-[4-(1,4-benzodioxan-5-yl)-1-piperazinyl]ethyl]-2-imidazolidinone]	0.013 µM	
CCN1CCN(CCCN2CCN(c3cccc4c3OCCO4)CC2)C1=O [Compound 4b, 1-[3-[4-(1,4-Benzodioxan-5-yl)-1-piperazinyl]-1-propyl]-3-ethyl-2-imidazolidinone]	0.04 µM	
O=C1N(CCN2CCN(c3cccc4ccsc34)CC2)CCN1c1ccccc1 [Compound 2t, 1-[2-(4-Benzo[b]thiophen-7-yl-1-piperazinyl)ethyl]-3-phenyl-2-imidazolidinone]	0.015 µM	
CC1(C)Cc2cccc(C3CCN(CCCCN4CCN(C5CCCCC5)C4=O)CC3)c2O1 [Compound 11a, 1-Cyclohexyl-3-[4-[4-(2,3-dihydro-2,2-dimethylbenzofuran-7-yl)-1-piperidinyl]-1-butyl]-2-imidazolidinone]	0.0035 µM	
CCN1CCN(CCN2CCN(c3cccc4c3OCCO4)CC2)C1=O [Compound 2l, 1-[2-[4-(1,4-Benzodioxan-5-yl)-1-piperazinyl]ethyl]-3ethyl-2-imidazolidinone]	0.072 µM	
CC1(C)Cc2cccc(N3CCN(CCCCCCN4CCN(C5CCCC5)C4=O)CC3)c2O1 [Compound 2nn, 1-Cyclopentyl-3-[6-[4-(2,3-dihydro-2,2-dimethylbenzofuran-7-yl)-1-piperazinyl]-1-hexyl]-2-imidazolidinone]	0.0054 µM	
O=C1N(CCN2CCN(c3cc(Cl)cc4cc(-c5ccccc5)oc34)CC2)CCN1C1CCCC1 [Compound 2ii, 1-[2-[4-(5-Chloro-2-phenylbenzofuran-7-yl)-1-piperazinyl]ethyl]-3-cyclopentyl-2-imidazolidinone]	0.3 µM	
CC1(C)Cc2cccc(N3CCN(CCCCN4CCN(c5ccc(F)cc5)C4=O)CC3)c2O1 [Compound 2dd, 1-[4-[4-(2,3-Dihydro-2,2-dimethylbenzofuran-7-yl)-1-piperazinyl]-1-butyl]-3-(4-fluorophenyl)-2-imidazolidinone]	0.0005 µM	
O=C1N(CCN2CCN(c3cccc4c3NCC4)CC2)CCN1C1CCCC1 [Compound 9a, 1-Cyclopentyl-3-[2-[4-(7-indolinyl)-1-piperazinyl]ethyl]-2-imidazolidinone]	0.23 µM	
CC1(C)COc2c(N3CCN(CCCCCCN4CCN(C5CCCC5)C4=O)CC3)cc(Cl)cc21 [Compound 2pp]	0.02 µM	
O=C1N(CCN2CCN(c3cccc4nsnc34)CC2)CCN1c1ccccc1 [Compound 2h, 4-[4-[2-(3-Phenylimidazolidin-2-on-1-yl)ethyl]-1-piperazinyl]-2,1,3-benzothiadiazole]	0.028 µM	
CC1(C)Cc2cccc(N3CCN(CCCCN4CCN(c5cccc6ccccc56)C4=O)CC3)c2O1 [Compound 2jj, 1-[4-[4-(2,3-Dihydro-2,2-dimethylbenzofuran-7-yl)-1-piperazinyl]-1-butyl]-3-(1-naphtyl)-2-imidazolidinone]	0.0011 µM	
CC1(C)COc2c(N3CCN(CCN4CCN(C5CCCC5)C4=O)CC3)cc(Cl)cc21 [Compound 2oo]	0.044 µM	
O=C1N(CCCCN2CCN(c3cc(Cl)cc4cc(-c5ccccc5)oc34)CC2)CCN1C1CCCCC1 [Compound 2hh, 1-[4-[4-(5-Chloro-2-phenylbenzofuran-7-yl)-1-piperazinyl]-1-butyl]-3-cyclohexyl-2-imidazolidinone]	0.13 µM	
O=c1n(CCN2CCN(c3cccc4c3OCCO4)CC2)ccn1-c1ccccc1 [Compound 5b, 1-[3-[4-(1,4-Benzodioxan-5-yl)-1-piperazinyl]-ethyl]-1,3-dihydro-3-phenyl-2-imidazolone]	0.012 µM	
CC1(C)Cc2cccc(N3CCN(CCCCN4CCN(C56CC7CC(CC(C7)C5)C6)C4=O)CC3)c2O1 [Compound 2gg, 1-Adamantyl-3-[4-[4-(2,3-dihydro-2,2-dimethylbenzofuran-7-yl)-1-piperazinyl]-1-butyl]-2-imidazolidinone]	0.0028 µM	
CC1(C)COc2c(N3CCN(CCCCCCN4CCN(C5CCCC5)C4=O)CC3)cccc21 [Compound 14c]	0.0075 µM	
CC1(C)COc2c(N3CCN(CCN4CCN(C5CCCC5)C4=O)CC3)cccc21 [Compound 14b]	0.038 µM	
CS(=O)(=O)CCCN1CCN(c2cccc3c2OCC3)CC1 [Compound 1d, 1-(2,3-Dihydrobenzofuran-7-yl)-4-(3-methylsulfonyl-1-propyl)piperazine]	0.19 µM	

SMILES	IC50 [1]	IC50
O=C1N(CCN2CCN(c3cccc4cnsc34)CC2)CCN1c1ccccc1 [Compound 2x, 1-[2-[4-(1,2-Benzisothiazol-7-yl)-1-piperazinyl]ethyl]-3-phenyl-2-imidazolidinone]	0.075 µM	
O=C1N(CCCN2CCN(c3cccc4c3OCCO4)CC2)CCN1C1CCCCC1 [Compound 4c, 1-[3-[4-(1,4-Benzodioxan-5-yl)-1-piperazinyl]-1-propyl]-3-cyclohexyl-2-imidazolidinone]	0.019 µM	
CC1(C)Cc2c(N3CCN(CCCN4CCN(C5CCCCC5)C4=O)CC3)ccc(Cl)c2O1 [Compound 2qq]	0.3 µM	
CC1(C)Cc2cccc(C3=CCN(CCCCN4CCN(C5CCCCC5)C4=O)CC3)c2O1 [Compound 10a, 1-Cyclohexyl-3-[4-[4-(2,3-dihydro-2,2-dimethylbenzofuran-7-yl)-1,2,3,6-tetrahydropyrid-1-yl]-1-butyl]-2-imidazolidinone]		0.0012 µM
O=C1N(CCN2CCN(c3cccc4occc34)CC2)CCN1C1CCCC1 [Compound 2s, 1-[2-(4-Benzofuran-4-yl-1-piperazinyl)ethyl]-3-cyclopentyl-2-imidazolidinone]	0.032 µM	
O=C1N(CCN2CCN(c3cccc4cc(-c5ccccc5)oc34)CC2)CCN1C1CCCC1 [Compound 14a, 1-Cyclopentyl-3-[2-[4-(2-phenylbenzofuran-7-yl)-1-piperazinyl]ethyl]-2-imidazolidinone]	0.0097 µM	
CCOC(=O)c1cc2cccc(N3CCN(CCN4CCN(c5ccccc5)C4=O)CC3)c2[nH]1 [Compound 2j, Ethyl 7-[4-[2-(3-phenyl-2-imidazoidin-2-on-1-yl)ethyl]-1-piperazinyl]-2-indolyl carboxylate]	0.053 µM	
O=C1N(CCN2CCN(c3cccc4ccccc34)CC2)CCN1c1ccccc1 [Compound 2k, 1-[2-[4-(1-Naphtyl)-1-piperazinyl]ethyl]-3-phenyl-2-imidazolidinone]	0.015 µM	
CC1(C)Cc2cccc(N3CCN(CCCN4CCN(C5CCCCC5)C4=O)CC3)c2O1 [Compound 2kk, 1-Cyclohexyl-3-[3-[4-(2,3-dihydro-2,2-dimethylbenzofuran-7-yl)-1-piperazinyl]-1-propyl]-2-imidazolidinone]	0.0057 µM	
CC1(C)Cc2cc(F)cc(N3CCN(CCCCN4CCN(C5CCCCC5)C4=O)CC3)c2O1 [Compound 2mm]	0.0017 µM	
CCOC(=O)c1cc2c(N3CCN(CCN4CCN(C5CCCC5)C4=O)CC3)cccc2o1 [Compound 2cc, Ethyl [4-[4-[2-(3-cyclopentyl-2-imidazolidinon-1-yl)ethyl]-1-piperazinyl]-2-benzofuranyl] carboxylate]	0.083 µM	
O=c1n(CCCCN2CCN(c3cccc4c3OCCO4)CC2)c2ccccc2n1-c1ccc(F)cc1 [Compound 13a, 1-[4-[4-(1,4-Benzodioxan-5-yl)-1-piperazinyl]-1-butyl]-3-(4-fluorophenyl)-2(3H)-benzimidazolone]	0.022 µM	
CC1(C)Cc2cc(F)cc(N3CCN(CCCCN4CCN(c5ccc(F)cc5)C4=O)CC3)c2O1 [Compound 2ll, 1-[4-[4-(2,3-Dihydro-2,2-dimethyl-5-fluorobenzofuran-7-yl)-1-piperazinyl]-1-butyl]-3-(4-fluorophenyl)-2-imidazolidinone]	0.01 µM	
NC(=O)c1cc2c(N3CCN(CCN4CCN(C5CCCC5)C4=O)CC3)cccc2o1 [Compound 8a, 4-[4-[2-(3-Cyclopentyl-2-imidazolidinon-1-yl)ethyl]-1-piperazinyl]-2-benzofuranylcarboxamide]	0.0039 µM	
CC1(C)Cc2c(cccc2N2CCN(CCCN3CCN(C4CCCCC4)C3=O)CC2)O1 [Compound 14d]	0.022 µM	
CC(C)(C)N1CCN(CCN2CCN(c3cccc4c3OCCO4)CC2)C1=O [Compound 2ee]	0.043 µM	
O=S(=O)(CCN1CCN(c2cccc3c2OCC3)CC1)C1CCCCC1 [Compound 6a, 1-(2-Cyclohexylsulfonyl-1-ethyl)-4-(2,3-dihydrobenzofuran-7-yl)piperazine]	0.22 µM	
O=C1N(CCCN2CCN(c3cccc4c3OCCO4)CC2)CCN1Cc1ccccc1 [Compound 4a, 1-[3-[4-(1,4-Benzodioxan-5-yl)-1-piperazinyl]-1-propyl]-3-benzyl-2-imidazolidinone]	0.018 µM	
O=C1N(CCN2CCN(c3cccc4[nH]ccc34)CC2)CCN1c1ccccc1 [Compound 2z, 1-[2-[4-(4-Indolyl)-1-piperazinyl]ethyl]-3-phenyl-2-imidazolidinone]	0.034 µM	
